These results are taken from ChEMBL document CHEMBL1136084, “N-(4-[4-(2,3-dichlorophenyl)piperazin-1-yl]butyl, butenyl and butynyl)arylcarboxamides as novel dopamine D(3) receptor antagonists” (Bioorg Med Chem Lett, 2003).

Molecules are shown by their SMILES.

One test has as its target D(2) dopamine receptor (Rattus norvegicus, UniProt P61169). As to the kind of experiment: biochemical.
For test [1], the target named is D(3) dopamine receptor (Rattus norvegicus, UniProt P19020). As to the kind of experiment: Binding affinity towards rat Dopamine receptor D3 in Sf9 cells expressing in recombinant baculovirus (Bv) using [125I]IABN as radioligand.
Sequence of D(3) dopamine receptor (Rattus norvegicus, UniProt P19020) (P19020 whole entry): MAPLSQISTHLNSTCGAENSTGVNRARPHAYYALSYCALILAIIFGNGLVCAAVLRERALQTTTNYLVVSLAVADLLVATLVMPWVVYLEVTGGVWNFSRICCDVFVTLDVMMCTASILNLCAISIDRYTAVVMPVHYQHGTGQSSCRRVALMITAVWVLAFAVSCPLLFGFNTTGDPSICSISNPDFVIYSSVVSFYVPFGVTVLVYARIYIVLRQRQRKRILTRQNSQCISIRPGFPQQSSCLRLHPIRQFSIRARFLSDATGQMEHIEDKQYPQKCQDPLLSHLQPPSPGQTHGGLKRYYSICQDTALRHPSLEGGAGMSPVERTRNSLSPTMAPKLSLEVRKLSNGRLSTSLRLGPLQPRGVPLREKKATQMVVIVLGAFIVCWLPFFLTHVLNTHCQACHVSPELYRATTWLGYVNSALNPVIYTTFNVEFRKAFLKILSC
Test [2] concerns the target D(3) dopamine receptor (Homo sapiens, UniProt P35462).
Description: Antagonistic activity of quinpirole stimulation of mitogenesis in human Dopamine receptor D3 transfected CHO cells

Sequence of D(2) dopamine receptor (P61169 whole entry): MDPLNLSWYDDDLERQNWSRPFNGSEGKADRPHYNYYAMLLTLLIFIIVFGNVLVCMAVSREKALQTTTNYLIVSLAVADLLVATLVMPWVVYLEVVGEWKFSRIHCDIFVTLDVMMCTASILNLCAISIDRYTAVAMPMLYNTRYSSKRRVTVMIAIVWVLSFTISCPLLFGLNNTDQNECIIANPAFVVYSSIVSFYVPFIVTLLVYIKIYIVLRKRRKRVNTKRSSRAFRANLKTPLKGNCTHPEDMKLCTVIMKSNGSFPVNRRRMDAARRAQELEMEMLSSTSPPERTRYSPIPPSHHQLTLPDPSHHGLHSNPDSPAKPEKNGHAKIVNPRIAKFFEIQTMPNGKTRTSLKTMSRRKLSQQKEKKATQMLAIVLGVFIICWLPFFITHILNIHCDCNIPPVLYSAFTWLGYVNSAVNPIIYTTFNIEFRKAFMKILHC
Sequence of D(3) dopamine receptor (Homo sapiens, UniProt P35462) (P35462 whole entry): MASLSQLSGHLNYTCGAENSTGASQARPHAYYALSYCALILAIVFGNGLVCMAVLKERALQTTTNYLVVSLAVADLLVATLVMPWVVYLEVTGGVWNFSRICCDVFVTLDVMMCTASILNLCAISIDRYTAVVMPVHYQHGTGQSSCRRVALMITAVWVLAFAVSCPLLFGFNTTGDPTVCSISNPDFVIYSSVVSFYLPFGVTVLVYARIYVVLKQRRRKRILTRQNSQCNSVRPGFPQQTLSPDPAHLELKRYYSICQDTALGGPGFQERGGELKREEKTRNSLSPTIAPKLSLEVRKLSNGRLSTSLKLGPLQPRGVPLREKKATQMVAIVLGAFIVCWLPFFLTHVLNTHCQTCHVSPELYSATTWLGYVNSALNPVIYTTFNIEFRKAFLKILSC

By Ki is commonly meant the equilibrium dissociation constant of an inhibitor or competing ligand from its target. The term IC50 denotes the concentration needed to halve the response being measured. The low end stands for inhibition by little substance, the high end for a need for much substance. Regarding `O=C(NCCCCN1CCN(c2cccc(Cl)c2Cl)CC1)c1cnc2ccccc2n1`, the Ki came to 0.109 µM at D(2) dopamine receptor and 0.0019 µM at D(3) dopamine receptor [1]. For the same compound, half-maximal inhibition at D(3) dopamine receptor [2] (IC50) required 0.0269 µM.
In the case of `O=C(NCCCCN1CCN(c2cccc(Cl)c2Cl)CC1)c1ccc2c(c1)Cc1ccccc1-2`, the Ki at D(2) dopamine receptor was determined as 0.911 µM; at D(3) dopamine receptor [1] it was 0.0011 µM.
On the same counts, the results for `O=C(NCCCCN1CCN(c2cccc(Cl)c2Cl)CC1)c1cccc2c1-c1ccccc1C2=O` are 0.15 µM and 0.0016 µM.
On the same counts, the results for `O=C(NCCCCN1CCN(c2cccc(Cl)c2Cl)CC1)c1ccc(I)cc1` are 0.0875 µM and 0.0014 µM.
The matching figures for `O=C(NCCCN1CCN(c2ccccc2)CC1)C1c2ccccc2-c2ccccc21`: 1.02 µM and 0.0845 µM.
Take `O=C(NC/C=C/CN1CCN(c2cccc(Cl)c2Cl)CC1)c1ccc2c(c1)Cc1ccccc1-2`: the Ki at D(2) dopamine receptor was determined as 0.198 µM; on D(3) dopamine receptor [1], 0.0059 µM.
On the same counts, the results for `O=C(NC/C=C\CN1CCN(c2cccc(Cl)c2Cl)CC1)c1ccc2c(c1)Cc1ccccc1-2` are 0.0873 µM and 0.006 µM.
The matching figures for `O=C(NC/C=C\CN1CCN(c2cccc(Cl)c2Cl)CC1)c1cccc2c1-c1ccccc1C2`: 0.0107 µM and 0.0065 µM.
On the same counts, the results for `O=C(NCCCCN1CCN(c2cccc(Cl)c2Cl)CC1)c1cccc2c1-c1ccccc1C2` are 0.134 µM and 0.0045 µM.
Take `O=C1c2ccccc2C(=O)N1CCCCCN1CCN(c2cccc(Cl)c2Cl)CC1`: the Ki at D(2) dopamine receptor turned out to be 0.0864 µM; at D(3) dopamine receptor [1], 0.0056 µM.
On the same counts, the results for `O=C(NCCCCN1CCN(c2cccc(Cl)c2Cl)CC1)C1c2ccccc2-c2ccccc21` are 0.0552 µM and 0.0111 µM.
The matching figures for `O=C(NCCCN1CCN(c2cccc(Cl)c2Cl)CC1)c1cccc2c1-c1ccccc1C2=O`: 0.153 µM and 0.043 µM.
The matching figures for `O=C(NCCCN1CCN(c2cccc(Cl)c2Cl)CC1)c1ccc2c(c1)Cc1ccccc1-2`: 0.396 µM and 0.199 µM.
As to `O=C(NCCCCCN1CCN(c2cccc(Cl)c2Cl)CC1)c1cccc2c1-c1ccccc1C2=O`, the values for the inhibition constant (Ki) on D(2) dopamine receptor and at D(3) dopamine receptor [1] were 0.0353 µM and 0.002 µM, respectively.
Turning to `O=C(NCCCCN1CCN(c2cccc(Cl)c2Cl)CC1)c1cc2cc(F)ccc2[nH]1`, at D(3) dopamine receptor [1], the Ki was 0.0026 µM.
Turning to `O=C(NCCCN1CCN(c2cccc(Cl)c2Cl)CC1)C1c2ccccc2-c2ccccc21`, the values for the inhibition constant Ki at D(2) dopamine receptor and at D(3) dopamine receptor [1] were 0.25 µM and 0.034 µM, respectively.
On the same counts, the results for `O=C(NCCCCN1CCN(c2cccc(Cl)c2Cl)CC1)c1ccc(-c2ccccn2)cc1` are 0.0579 µM and 0.0006 µM.
On the same counts, the results for `O=C(NC/C=C/CN1CCN(c2cccc(Cl)c2Cl)CC1)c1cccc2c1-c1ccccc1C2` are 0.106 µM and 0.019 µM.
For `O=C1c2ccccc2C(=O)N1CCCCN1CCN(c2cccc(Cl)c2Cl)CC1`, the figures for the Ki on D(2) dopamine receptor and on D(3) dopamine receptor [1] were 0.102 µM and 0.0048 µM, respectively.
On the same counts, the results for `O=C(NCCCN1CCN(c2cccc(Cl)c2Cl)CC1)c1cccc2c1-c1ccccc1C2` are 0.376 µM and 0.139 µM.
The matching figures for `O=C(NC/C=C/CN1CCN(c2cccc(Cl)c2Cl)CC1)c1ccccc1`: 0.0501 µM and 0.0013 µM.
The matching figures for `O=C(NCC#CCN1CCN(c2cccc(Cl)c2Cl)CC1)c1ccc2c(c1)Cc1ccccc1-2`: 1 µM and 0.214 µM.
As to `O=C(NCC#CCN1CCN(c2cccc(Cl)c2Cl)CC1)c1cccc2c1-c1ccccc1C2`, the Ki at D(2) dopamine receptor stood at 0.891 µM; at D(3) dopamine receptor [1], 1.08 µM.
In the case of `Nc1ccc2c(c1)-c1c(cccc1C(=O)NCCCCN1CCN(c3cccc(Cl)c3Cl)CC1)C2`, the Ki at D(2) dopamine receptor worked out at 0.0793 µM; on D(3) dopamine receptor [1], 0.0035 µM.
On the same counts, the results for `O=C(NCC#CCN1CCN(c2cccc(Cl)c2Cl)CC1)c1ccccc1` are 1.7 µM and 0.394 µM.
The matching figures for `O=C(NC/C=C\CN1CCN(c2cccc(Cl)c2Cl)CC1)c1ccccc1`: 0.02 µM and 0.0049 µM.
